{"source": "paper PMC3956125", "about": "(Molecular cancer therapeutics, 2013)", "key": {"panel of 320 kinases": {"system": "panel of 320 kinases", "assay": "kinase selectivity profile, single dose", "format": "biochemical"}, "hERG": {"target": "hERG (Homo sapiens, UniProt Q12809)", "sequence (Q12809 whole entry)": "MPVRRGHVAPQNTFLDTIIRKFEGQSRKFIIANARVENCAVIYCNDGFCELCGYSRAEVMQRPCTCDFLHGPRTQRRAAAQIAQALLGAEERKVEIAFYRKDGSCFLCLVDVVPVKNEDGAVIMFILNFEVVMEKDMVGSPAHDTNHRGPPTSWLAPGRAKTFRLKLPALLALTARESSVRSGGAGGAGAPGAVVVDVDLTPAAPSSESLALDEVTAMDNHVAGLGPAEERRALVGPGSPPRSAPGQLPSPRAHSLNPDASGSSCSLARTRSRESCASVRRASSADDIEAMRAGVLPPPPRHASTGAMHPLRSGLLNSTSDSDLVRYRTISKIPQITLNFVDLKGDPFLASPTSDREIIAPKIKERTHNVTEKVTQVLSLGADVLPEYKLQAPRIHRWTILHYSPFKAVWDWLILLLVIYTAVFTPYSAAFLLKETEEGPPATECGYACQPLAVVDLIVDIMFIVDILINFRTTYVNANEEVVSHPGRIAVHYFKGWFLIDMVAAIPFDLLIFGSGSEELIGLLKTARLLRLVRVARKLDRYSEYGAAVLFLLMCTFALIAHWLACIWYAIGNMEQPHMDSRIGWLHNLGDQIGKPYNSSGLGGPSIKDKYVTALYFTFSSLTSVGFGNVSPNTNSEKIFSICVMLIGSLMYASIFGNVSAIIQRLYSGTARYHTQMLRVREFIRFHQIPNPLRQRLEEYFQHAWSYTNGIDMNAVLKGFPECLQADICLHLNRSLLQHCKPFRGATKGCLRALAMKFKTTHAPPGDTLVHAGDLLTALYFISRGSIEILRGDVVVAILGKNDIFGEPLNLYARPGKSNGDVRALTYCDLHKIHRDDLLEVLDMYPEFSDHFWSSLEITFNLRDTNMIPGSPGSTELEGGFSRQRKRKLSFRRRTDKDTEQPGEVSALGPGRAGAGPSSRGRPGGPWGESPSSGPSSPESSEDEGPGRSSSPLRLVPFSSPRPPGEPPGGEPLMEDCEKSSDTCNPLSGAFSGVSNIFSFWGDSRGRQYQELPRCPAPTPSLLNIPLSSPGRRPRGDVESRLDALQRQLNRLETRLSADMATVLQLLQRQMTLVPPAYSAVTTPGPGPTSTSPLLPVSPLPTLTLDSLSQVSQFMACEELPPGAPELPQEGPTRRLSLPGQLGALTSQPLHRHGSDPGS", "assay": "hERG inhibition", "format": "cell-based", "conditions": "read-out: IC50 for hERG inhibition; patch-clamp"}, "786-O cells [1]": {"system": "786-O cells", "assay": "3H-thymidine incorporation proliferation assay", "format": "cell-based, human"}, "A498 cells [2]": {"system": "A498 cells", "assay": "3H-thymidine incorporation proliferation assay", "format": "cell-based, human"}, "786-O cells [3]": {"system": "786-O cells", "assay": "Annexin-FITC/PI apoptosis assay", "format": "cell-based, human", "conditions": "48 hours"}, "A498 cells [4]": {"system": "A498 cells", "assay": "Annexin-FITC/PI apoptosis assay", "format": "cell-based, human", "conditions": "48 hours"}, "786-O cells [5]": {"system": "786-O cells", "assay": "cell cycle analysis by flow cytometry", "format": "cell-based, human", "conditions": "increasing concentrations, 24 hours"}, "A498 cells [6]": {"system": "A498 cells", "assay": "cell cycle analysis by flow cytometry", "format": "cell-based, human", "conditions": "increasing concentrations, 24 hours"}, "786-O cells [7]": {"system": "786-O cells", "assay": "Western blot / immunofluorescence of marker proteins", "format": "cell-based, human"}, "A498 cells [8]": {"system": "A498 cells", "assay": "Western blot / immunofluorescence of marker proteins", "format": "cell-based, human"}, "786-O cells [9]": {"system": "786-O cells", "assay": "intracellular glucose measurement", "format": "cell-based, human", "conditions": "24 hours"}, "A498 cells [10]": {"system": "A498 cells", "assay": "intracellular glucose measurement", "format": "cell-based, human", "conditions": "24 hours"}, "786-O tumor model": {"system": "786-O tumor model", "assay": "subcutaneous xenograft anti-tumor activity", "format": "in vivo, mouse", "conditions": "4 weeks"}, "A498 tumor model": {"system": "A498 tumor model", "assay": "subcutaneous xenograft anti-tumor activity", "format": "in vivo, mouse", "conditions": "4 weeks"}, "SKOV3 ovarian cancer": {"system": "SKOV3 ovarian cancer", "conditions": "SKOV3 xenograft; cited from earlier work"}, "[11]": {"system": "pancreatic and ovarian cancer cells", "conditions": "cited from earlier work"}, "metabolic stability": {"assay": "metabolic stability", "conditions": "human liver microsomes, after 60 min of incubation"}, "[12]": {"assay": "pharmacokinetic analysis of plasma levels", "conditions": "Sprague-Dawley rats"}, "CYP1A2": {"target": "T1, CYP1A2 (Homo sapiens, UniProt P05177)", "T1 sequence (P05177 1-516)": "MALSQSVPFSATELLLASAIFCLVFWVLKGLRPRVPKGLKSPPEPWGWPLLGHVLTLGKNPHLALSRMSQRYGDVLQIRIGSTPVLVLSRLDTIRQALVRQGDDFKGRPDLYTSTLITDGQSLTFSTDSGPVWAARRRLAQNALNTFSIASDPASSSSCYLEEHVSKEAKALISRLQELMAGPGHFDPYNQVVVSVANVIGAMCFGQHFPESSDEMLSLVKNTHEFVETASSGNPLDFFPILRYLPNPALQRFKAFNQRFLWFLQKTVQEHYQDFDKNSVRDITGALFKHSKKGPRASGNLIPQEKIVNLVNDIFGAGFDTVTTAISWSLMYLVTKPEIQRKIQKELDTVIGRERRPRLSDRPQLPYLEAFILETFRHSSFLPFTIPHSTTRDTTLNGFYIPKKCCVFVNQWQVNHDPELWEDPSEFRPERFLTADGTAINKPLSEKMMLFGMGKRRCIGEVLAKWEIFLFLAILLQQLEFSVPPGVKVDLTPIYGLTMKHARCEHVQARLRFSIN", "assay": "multiple CYP assay in human liver microsomes", "conditions": "10 μM"}, "CYP2B6": {"target": "T2, CYP2B6 (Homo sapiens, UniProt P20813)", "T2 sequence (P20813 1-491)": "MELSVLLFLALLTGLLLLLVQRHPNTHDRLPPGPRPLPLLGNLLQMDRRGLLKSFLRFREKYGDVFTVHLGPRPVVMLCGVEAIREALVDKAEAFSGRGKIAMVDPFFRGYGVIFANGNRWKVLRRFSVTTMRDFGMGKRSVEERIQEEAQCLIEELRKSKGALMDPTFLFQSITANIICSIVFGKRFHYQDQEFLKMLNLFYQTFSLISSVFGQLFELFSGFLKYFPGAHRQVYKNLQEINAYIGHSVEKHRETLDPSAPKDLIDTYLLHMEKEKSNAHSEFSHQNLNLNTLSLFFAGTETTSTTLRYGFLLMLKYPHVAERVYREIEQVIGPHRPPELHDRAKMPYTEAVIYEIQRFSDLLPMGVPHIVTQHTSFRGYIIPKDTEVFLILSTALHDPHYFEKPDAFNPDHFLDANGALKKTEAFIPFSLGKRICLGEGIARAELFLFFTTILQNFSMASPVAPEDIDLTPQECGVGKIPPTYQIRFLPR", "assay": "multiple CYP assay in human liver microsomes", "conditions": "10 μM"}, "CYP2C9": {"target": "CYP2C9 (Homo sapiens, UniProt P11712)", "sequence (P11712 whole entry)": "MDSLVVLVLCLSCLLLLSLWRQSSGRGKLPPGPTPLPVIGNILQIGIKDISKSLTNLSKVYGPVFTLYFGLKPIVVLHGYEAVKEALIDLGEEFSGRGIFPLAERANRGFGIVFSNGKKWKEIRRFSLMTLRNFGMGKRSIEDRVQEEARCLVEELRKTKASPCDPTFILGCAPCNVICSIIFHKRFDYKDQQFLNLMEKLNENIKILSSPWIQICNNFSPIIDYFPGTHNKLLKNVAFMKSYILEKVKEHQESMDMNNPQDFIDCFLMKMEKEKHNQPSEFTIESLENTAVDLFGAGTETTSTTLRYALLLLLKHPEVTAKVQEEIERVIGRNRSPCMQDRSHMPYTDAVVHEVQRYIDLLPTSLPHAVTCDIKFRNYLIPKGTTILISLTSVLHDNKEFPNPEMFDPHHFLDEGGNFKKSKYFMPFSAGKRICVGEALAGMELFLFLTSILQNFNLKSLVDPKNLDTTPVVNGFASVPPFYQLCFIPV", "assay": "multiple CYP assay in human liver microsomes", "conditions": "10 μM"}, "CYP2C19": {"target": "CYP2C19 (Homo sapiens, UniProt P33261)", "sequence (P33261 whole entry)": "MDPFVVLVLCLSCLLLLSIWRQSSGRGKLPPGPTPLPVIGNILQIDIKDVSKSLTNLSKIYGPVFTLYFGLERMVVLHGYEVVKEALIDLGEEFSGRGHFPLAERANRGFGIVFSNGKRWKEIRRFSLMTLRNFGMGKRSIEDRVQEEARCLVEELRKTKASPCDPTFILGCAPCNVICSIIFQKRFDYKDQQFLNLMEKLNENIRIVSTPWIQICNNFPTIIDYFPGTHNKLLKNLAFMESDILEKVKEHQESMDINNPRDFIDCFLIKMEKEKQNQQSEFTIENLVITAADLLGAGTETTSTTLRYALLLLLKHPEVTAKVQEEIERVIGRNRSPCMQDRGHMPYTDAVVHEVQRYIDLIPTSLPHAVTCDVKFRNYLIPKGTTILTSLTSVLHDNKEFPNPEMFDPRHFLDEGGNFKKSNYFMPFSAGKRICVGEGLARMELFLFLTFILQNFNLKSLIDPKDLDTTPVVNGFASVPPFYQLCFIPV", "assay": "multiple CYP assay in human liver microsomes", "conditions": "10 μM"}, "CYP2D6": {"target": "CYP2D6 (Homo sapiens, UniProt P10635)", "sequence (P10635 whole entry)": "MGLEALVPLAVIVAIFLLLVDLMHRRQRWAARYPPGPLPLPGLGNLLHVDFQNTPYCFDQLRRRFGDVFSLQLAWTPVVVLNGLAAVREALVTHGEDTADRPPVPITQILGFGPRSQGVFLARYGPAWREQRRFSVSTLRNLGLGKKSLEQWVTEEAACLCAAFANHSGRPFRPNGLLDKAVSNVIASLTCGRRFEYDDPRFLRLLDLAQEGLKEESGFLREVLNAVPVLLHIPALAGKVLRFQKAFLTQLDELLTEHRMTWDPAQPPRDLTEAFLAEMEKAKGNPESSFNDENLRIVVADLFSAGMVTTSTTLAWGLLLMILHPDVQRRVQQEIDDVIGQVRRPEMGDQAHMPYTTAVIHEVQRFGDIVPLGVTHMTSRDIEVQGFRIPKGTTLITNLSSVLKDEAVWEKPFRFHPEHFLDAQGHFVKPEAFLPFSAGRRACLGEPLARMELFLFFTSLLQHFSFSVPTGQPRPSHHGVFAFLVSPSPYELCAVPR", "assay": "multiple CYP assay in human liver microsomes", "conditions": "10 μM"}, "CYP3A4": {"target": "CYP3A4 (Homo sapiens, UniProt P08684)", "sequence (P08684 whole entry)": "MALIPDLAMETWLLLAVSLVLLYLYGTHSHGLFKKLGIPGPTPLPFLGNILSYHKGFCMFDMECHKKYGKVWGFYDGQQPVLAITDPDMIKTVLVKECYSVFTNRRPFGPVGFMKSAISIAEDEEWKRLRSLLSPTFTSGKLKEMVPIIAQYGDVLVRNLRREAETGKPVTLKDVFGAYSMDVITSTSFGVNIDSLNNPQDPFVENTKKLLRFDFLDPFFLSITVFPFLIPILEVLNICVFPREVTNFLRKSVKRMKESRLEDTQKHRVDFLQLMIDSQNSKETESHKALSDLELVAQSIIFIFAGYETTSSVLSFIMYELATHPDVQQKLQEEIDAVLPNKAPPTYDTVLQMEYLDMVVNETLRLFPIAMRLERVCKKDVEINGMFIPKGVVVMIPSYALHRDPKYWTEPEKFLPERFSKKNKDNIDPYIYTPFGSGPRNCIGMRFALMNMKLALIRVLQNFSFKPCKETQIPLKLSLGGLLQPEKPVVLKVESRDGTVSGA", "assay": "multiple CYP assay in human liver microsomes", "conditions": "10 μM"}, "[13]": {"conditions": "20 mg/kg i.p. three times a week, p<0.05"}, "[14]": {"conditions": "tumor tissue sections, 20 mg/kg i.p."}}}
{"molecule": "Cn1cc(C2=C(c3coc4ccc(F)cc34)C(=O)NC2=O)c2cc3c(cc21)OCO3", "note": "[9-ING-41]", "values": [{"measurement": "number of kinases with less than 50% remaining activity", "setting": "panel of 320 kinases; 10 μM single dose, duplicates, panel of 320 kinases", "result": 35}, {"measurement": "discrimination between GSK-3α and GSK-3β", "setting": "panel of 320 kinases; SI Table S1, 10 μM", "result": "inhibits them equally"}, {"measurement": "IC50", "setting": "hERG", "result": 21, "unit": "µM"}, {"measurement": "inhibition in proliferation", "setting": "786-O cells [1]; 500 nM, 72 hours", "result": "~ 40%"}, {"measurement": "inhibition of proliferation", "setting": "786-O cells [1]; 1000 nM, 72 hours", "result": "almost complete inhibition"}, {"measurement": "IC50", "setting": "786-O cells [1]; read-out: cell growth inhibition IC50", "result": "< 1", "unit": "µM"}, {"measurement": "inhibition in proliferation", "setting": "A498 cells [2]; 500 nM, 72 hours, A498", "result": "~ 40%"}, {"measurement": "inhibition of proliferation", "setting": "A498 cells [2]; 1000 nM, 72 hours, A498", "result": "almost complete inhibition"}, {"measurement": "IC50", "setting": "A498 cells [2]; read-out: cell growth inhibition IC50, A498", "result": "< 1", "unit": "µM"}, {"measurement": "percentage of early apoptotic cells", "setting": "786-O cells [3]; 1000 nM, 786-O (DMSO 5.54%)", "result": 11.6, "unit": "%"}, {"measurement": "induction of apoptosis", "setting": "786-O cells [3]; 786-O", "result": "No significant induction of apoptosis"}, {"measurement": "induction of apoptosis", "setting": "A498 cells [4]", "result": "No significant induction of apoptosis"}, {"measurement": "fraction of cells in the S phase", "setting": "786-O cells [5]", "result": "decreased significantly"}, {"measurement": "fraction of cells in the S phase", "setting": "A498 cells [6]", "result": "decreased significantly"}, {"measurement": "phosphorylation of AMPK-α and AMPK-β", "setting": "786-O cells [7]; 24-48 hours, Western blot", "result": "increase in phosphorylation"}, {"measurement": "cyclin D1 protein expression", "setting": "786-O cells [7]; 24 hours, Western blot", "result": "down-regulated"}, {"measurement": "Id-1 expression", "setting": "786-O cells [7]; 48 hours, Western blot", "result": "decreased"}, {"measurement": "Ksp-cadherin expression", "setting": "786-O cells [7]; 48 hours, Western blot", "result": "dose-dependent increase"}, {"measurement": "LC3B levels (autophagy)", "setting": "786-O cells [7]; Western blot and immunofluorescence", "result": "increased levels"}, {"measurement": "phosphorylation of AMPK-α and AMPK-β", "setting": "A498 cells [8]; 24-48 hours, A498, Western blot", "result": "increase in phosphorylation"}, {"measurement": "cyclin D1 protein expression", "setting": "A498 cells [8]; 24 hours, A498, Western blot", "result": "down-regulated"}, {"measurement": "Id-1 expression", "setting": "A498 cells [8]; 48 hours, A498, Western blot", "result": "decreased"}, {"measurement": "Ksp-cadherin expression", "setting": "A498 cells [8]; 48 hours, A498, Western blot", "result": "dose-dependent increase"}, {"measurement": "LC3B levels (autophagy)", "setting": "A498 cells [8]; A498, Western blot and immunofluorescence", "result": "increased levels"}, {"measurement": "intracellular glucose", "setting": "786-O cells [9]", "result": "dose-dependent increase"}, {"measurement": "intracellular glucose", "setting": "A498 cells [10]", "result": "dose-dependent increase"}, {"measurement": "tumor growth vs control group", "setting": "786-O tumor model; [13]", "result": "significant reduction of tumor growth"}, {"measurement": "abundance of Ki67-positive nuclei vs control group", "setting": "786-O tumor model; [14]", "result": "significantly lower"}, {"measurement": "tumor growth vs control group", "setting": "A498 tumor model; [13]", "result": "significant reduction of tumor growth"}, {"measurement": "abundance of Ki67-positive nuclei vs control group", "setting": "A498 tumor model; [14]", "result": "significantly lower"}, {"measurement": "tumor progression in vivo", "setting": "SKOV3 ovarian cancer", "result": "attenuate tumor progression"}, {"measurement": "antiproliferative activity", "setting": "[11]", "result": "potent antiproliferative agent"}, {"measurement": "parent compound remained", "setting": "metabolic stability", "result": 78.9, "unit": "%"}, {"measurement": "elimination half-life", "setting": "[12]", "result": 4.85, "unit": "h"}, {"measurement": "volumes of distribution", "setting": "[12]", "result": "≥ 10", "unit": "L/kg"}, {"measurement": "CYP activity", "setting": "CYP1A2", "result": "≥ 50 % of the control"}, {"measurement": "CYP activity", "setting": "CYP2B6", "result": "≥ 50 % of the control"}, {"measurement": "CYP activity", "setting": "CYP2C9", "result": "≥ 50 % of the control"}, {"measurement": "CYP activity", "setting": "CYP2C19", "result": "≥ 50 % of the control"}, {"measurement": "CYP activity", "setting": "CYP2D6", "result": "≥ 50 % of the control"}, {"measurement": "CYP activity", "setting": "CYP3A4", "result": "32 % of the control"}]}
{"molecule": "GSK-3β siRNA: Qiagen siRNA against GSK-3β, target sequence 5'-CCCAAATGTCAAACTACCAAA-3' (sense CAAAUGUCAAACUACCAAATT; antisense UUUGGUAGUUUGACAUUUGGG; chemistry not given here) [reference compound]", "values": [{"measurement": "inhibition of proliferation", "setting": "786-O cells [1]; siRNA 100 nM, 72 hours, p<0.01", "result": "slight yet significant inhibition"}, {"measurement": "inhibition of proliferation", "setting": "A498 cells [2]; siRNA 100 nM, 72 hours, A498, p<0.01", "result": "slight yet significant inhibition"}]}
